Test results: PubChem BioAssay AID248 (DTP/NCI, 2004)
Several values for one entry are separate records, joined by “and”; a condition that tells them apart may be missing. Equal entries are not always repeated. Toxic doses and inconclusive results are not listed. Rule as the data show it: active = T/C of 150% or more; inactive = T/C below 125%.

Test system: L1210 leukemia ip in BDF1 mice, survival T/C
Experiment: NCI In Vivo Anticancer Drug Screen. Data for tumor model L1210 Leukemia (intraperitoneal) in B6D2F1 (BDF1) mice
Details: endpoint: mean survival time, higher = longer survival
In short: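 Transplanted-tumor mice were given test agent; controls received vehicle only. Survival readings from the two groups were divided (treated over control).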

[1] = dose: 100.0 mg/kg/injection, schedule: Q01DX009 (ip), vehicle: saline with Tween-80
[2] = dose: 100.0 mg/kg/injection, schedule: Q04DX003 (ip), vehicle: saline with Tween-80
[3] = dose: 200.0 mg/kg/injection, schedule: Q01DX009 (ip), vehicle: saline with Tween-80
[4] = dose: 200.0 mg/kg/injection, schedule: Q04DX003 (ip), vehicle: saline with Tween-80
[5] = dose: 400.0 mg/kg/injection, schedule: Q01DX009 (ip), vehicle: saline with Tween-80
[6] = dose: 400.0 mg/kg/injection, schedule: Q04DX003 (ip), vehicle: saline with Tween-80
[7] = dose: 25.0 mg/kg/injection, schedule: Q01DX009 (ip), vehicle: saline with Tween-80
[8] = dose: 50.0 mg/kg/injection, schedule: Q01DX009 (ip), vehicle: saline with Tween-80
[9] = dose: 400.0 mg/kg/injection, schedule: Q04DX003 (ip), vehicle: Klucel (hydroxypropylcellulose) (HPC)
[10] = dose: 100.0 mg/kg/injection, schedule: Q04DX002 (ip), vehicle: saline with Tween-80
[11] = dose: 200.0 mg/kg/injection, schedule: Q04DX002 (ip), vehicle: saline with Tween-80
[12] = dose: 400.0 mg/kg/injection, schedule: Q04DX002 (ip), vehicle: saline with Tween-80
[13] = dose: 100.0 mg/kg/injection, schedule: Q04DX003 (ip), vehicle: saline
[14] = dose: 200.0 mg/kg/injection, schedule: Q04DX003 (ip), vehicle: saline
[15] = dose: 400.0 mg/kg/injection, schedule: Q04DX003 (ip), vehicle: saline
[16] = dose: 100.0 mg/kg/injection, schedule: Q01DX001 (ip), vehicle: saline
[17] = dose: 200.0 mg/kg/injection, schedule: Q01DX001 (ip), vehicle: saline
[18] = dose: 400.0 mg/kg/injection, schedule: Q01DX001 (ip), vehicle: saline
[19] = dose: 100.0 mg/kg/injection, schedule: Q01DX001 (ip), vehicle: carboxymethylcellulose (CMC)
[20] = dose: 400.0 mg/kg/injection, schedule: Q01DX001 (ip), vehicle: carboxymethylcellulose (CMC)

Measured: T/C

O=C(SCO)c1ccccc1
inactive: dose: 100.0 mg/kg/injection, schedule: Q01DX009 (sc), vehicle: olive oil, sesame oil, peanut oil 108 % of control | dose: 100.0 mg/kg/injection, schedule: Q04DX003 (sc), vehicle: olive oil, sesame oil, peanut oil 107 % of control | dose: 200.0 mg/kg/injection, schedule: Q01DX009 (sc), vehicle: olive oil, sesame oil, peanut oil 96 % of control | dose: 200.0 mg/kg/injection, schedule: Q04DX003 (sc), vehicle: olive oil, sesame oil, peanut oil 96 % of control | dose: 400.0 mg/kg/injection, schedule: Q01DX009 (sc), vehicle: olive oil, sesame oil, peanut oil 103 % of control | dose: 400.0 mg/kg/injection, schedule: Q04DX003 (sc), vehicle: olive oil, sesame oil, peanut oil 93 % of control

COc1cc(O)c(C(C)=O)c(OC)c1
inactive: [1] 98 % of control | [2] 101 % of control | [3] 96 % of control | [4] 95 % of control | [5] 90 % of control | [6] 93 % of control

CC1(C)Cc2cc3ccccc3nc2-c2ccccc21
inactive: [7] 97 % of control | [8] 97 % of control | [1] 94 % of control

NCCSC(O)(C(F)(F)F)C(F)(F)F
inactive: dose: 37.5 mg/kg/injection, schedule: Q04DX003 (ip), vehicle: saline 103 % of control | dose: 75.0 mg/kg/injection, schedule: Q01DX001 (ip), vehicle: saline 113 % of control and 101 % of control | dose: 75.0 mg/kg/injection, schedule: Q04DX003 (ip), vehicle: saline 102 % of control and 103 % of control | dose: 150.0 mg/kg/injection, schedule: Q01DX001 (ip), vehicle: saline 106 % of control and 109 % of control | dose: 150.0 mg/kg/injection, schedule: Q04DX003 (ip), vehicle: saline 104 % of control and 100 % of control

c1ccc(C2COC3(CCCCC3)O2)cc1 (stereo unspecified)
inactive: dose: 222.0 mg/kg/injection, schedule: Q01DX Z (ip), vehicle: methylcellulose (MC) 90 % of control | dose: 333.0 mg/kg/injection, schedule: Q01DX Z (ip), vehicle: methylcellulose (MC) 95 % of control

COC1CCCCC1SCSC1CCCCC1OC (stereo unspecified)
inactive: [1] 90 % of control | [5] 88 % of control

Nc1cc2c3c(cccc3c1Br)C(=O)N(Cc1ccccc1)C2=O
inactive: [9] 88 % of control

CC(C)n1cc(C(=O)c2ccccc2)cc1-c1ccccc1
inactive: [10] 93 % of control | [11] 89 % of control | [12] 97 % of control

CCCCCCCCCC(=O)CCC
inactive: dose: 100.0 mg/kg/injection, schedule: Q01DX009 (ip), vehicle: saline 100 % of control | [13] 111 % of control | dose: 200.0 mg/kg/injection, schedule: Q01DX009 (ip), vehicle: saline 96 % of control | [14] 97 % of control | dose: 400.0 mg/kg/injection, schedule: Q01DX009 (ip), vehicle: saline 98 % of control | [15] 105 % of control

CCCN1CC(C(=O)OCC)C(=O)C1=O (stereo unspecified)
inactive: dose: 50.0 mg/kg/injection, schedule: Q01DX001 (ip), vehicle: saline 108 % of control | [16] 100 % of control | [17] 96 % of control | [18] 102 % of control

COc1cccc(NC(=S)N(CCC#N)C2CCCCC2)c1
inactive: [10] 102 % of control | [11] 97 % of control | [12] 97 % of control

CN(C(=O)CCCc1ccc(N(CCCl)CCCl)cc1)c1ccccc1
inactive: dose: 2.0 mg/kg/injection, schedule: Q12HX018 (ip), vehicle: Klucel (hydroxypropylcellulose) (HPC) 100 % of control | dose: 4.0 mg/kg/injection, schedule: Q12HX018 (ip), vehicle: Klucel (hydroxypropylcellulose) (HPC) 96 % of control | dose: 8.0 mg/kg/injection, schedule: Q12HX018 (ip), vehicle: Klucel (hydroxypropylcellulose) (HPC) 107 % of control | dose: 8.0 mg/kg/injection, schedule: Q12HX018 (ip), vehicle: other 110 % of control | dose: 10.0 mg/kg/injection, schedule: Q12HX018 (ip), vehicle: other 101 % of control | dose: 12.0 mg/kg/injection, schedule: Q12HX018 (ip), vehicle: other 100 % of control

O=C(OCCCl)c1ccc([N+](=O)[O-])cc1
inactive: [2] 95 % of control | [4] 95 % of control | [6] 102 % of control

Cc1ccc(C(=O)c2ccccc2)c(C)c1
inactive: [19] 86 % of control | [20] 92 % of control

COc1cc(/C=C2\C(=O)C=C(C)CC2(C)C)ccc1O
inactive: dose: 25.0 mg/kg/injection, schedule: Q04DX003 (ip), vehicle: saline with Tween-80 92 % of control | dose: 50.0 mg/kg/injection, schedule: Q04DX003 (ip), vehicle: saline with Tween-80 89 % of control | [2] 89 % of control | [4] 90 % of control

CC1(C)OC2C(COC(=O)Oc3ccccc3)OC(n3cnc4c(=O)[nH]c(N)nc43)C2O1 (stereo unspecified)
inactive: dose: 100.0 mg/kg/injection, schedule: Q01DX005 (ip), vehicle: saline 106 % of control | dose: 200.0 mg/kg/injection, schedule: Q01DX005 (ip), vehicle: saline 97 % of control

CC(=O)C(C(C)=O)C(c1ccc2c(c1)OCO2)C(C(C)=O)C(C)=O
inactive: dose: 12.5 mg/kg/injection, schedule: Q01DX009 (ip), vehicle: saline with Tween-80 93 % of control | [7] 92 % of control | [8] 93 % of control and 92 % of control | [2] 86 % of control

Clc1ccccc1N=C1NN(c2c3ccccc3nc3ccccc23)Nc2ccccc21
inactive: dose: 100.0 mg/kg/injection, schedule: Q04DX003 (ip), vehicle: acetone 94 % of control | dose: 200.0 mg/kg/injection, schedule: Q04DX003 (ip), vehicle: acetone 90 % of control | dose: 400.0 mg/kg/injection, schedule: Q04DX003 (ip), vehicle: acetone 87 % of control

Cc1ccc(C(=O)C(=O)c2ccccc2)c(C)c1
inactive: [16] 107 % of control | [17] 102 % of control | [18] 96 % of control

C#CCOC(=O)C1C2CCC(O2)C1C(=O)O (stereo unspecified)
inactive: dose: 1.25 mg/kg/injection, schedule: Q01DX009 (ip), vehicle: saline 100 % of control | dose: 2.5 mg/kg/injection, schedule: Q01DX009 (ip), vehicle: saline 109 % of control

N#CC(=C(c1ccccc1)c1ccccc1)c1ccccc1
inactive: dose: 100.0 mg/kg/injection, schedule: Q04DX003 (ip), vehicle: Klucel (hydroxypropylcellulose) (HPC) 108 % of control | dose: 200.0 mg/kg/injection, schedule: Q04DX003 (ip), vehicle: Klucel (hydroxypropylcellulose) (HPC) 108 % of control | [9] 106 % of control

Cc1ccccc1SC(Sc1ccccc1C)(Sc1ccccc1C)Sc1ccccc1C
inactive: dose: 100.0 mg/kg/injection, schedule: Q01DX001 (ip), vehicle: Klucel (hydroxypropylcellulose) (HPC) 98 % of control | dose: 200.0 mg/kg/injection, schedule: Q01DX001 (ip), vehicle: Klucel (hydroxypropylcellulose) (HPC) 88 % of control | dose: 400.0 mg/kg/injection, schedule: Q01DX001 (ip), vehicle: Klucel (hydroxypropylcellulose) (HPC) 95 % of control

NNc1ccc2c(O)cc(S(=O)(=O)O)cc2c1
inactive: [16] 98 % of control | [13] 103 % of control | [17] 104 % of control | [14] 95 % of control | [18] 107 % of control | [15] 101 % of control

NC(=O)Oc1c(Cl)cc(Cl)c(Cl)c1[N+](=O)[O-]
inactive: dose: 25.0 mg/kg/injection, schedule: Q04DX002 (ip), vehicle: Klucel (hydroxypropylcellulose) (HPC) 97 % of control | dose: 50.0 mg/kg/injection, schedule: Q04DX002 (ip), vehicle: Klucel (hydroxypropylcellulose) (HPC) 104 % of control | dose: 100.0 mg/kg/injection, schedule: Q04DX002 (ip), vehicle: Klucel (hydroxypropylcellulose) (HPC) 97 % of control

COc1ccccc1NC(=O)Nc1cccc(C(C)=O)c1
inactive: [1] 93 % of control | [2] 97 % of control | [3] 90 % of control | [4] 100 % of control | [5] 100 % of control | [6] 96 % of control

O=C(COc1ccc(Cl)cc1)Nc1nccs1
inactive: [1] 96 % of control | [3] 89 % of control | [5] 92 % of control

CNC1CCCCC1
inactive: dose: 50.0 mg/kg/injection, schedule: Q01DX001 (ip), vehicle: carboxymethylcellulose (CMC) 96 % of control | [19] 102 % of control | dose: 200.0 mg/kg/injection, schedule: Q01DX001 (ip), vehicle: carboxymethylcellulose (CMC) 106 % of control | [20] 112 % of control

O=C=Nc1ccccc1-c1ccccc1
inactive: [10] 98 % of control | [11] 98 % of control | [12] 100 % of control
